Our source for the T/C values is PubChem BioAssay AID258 (DTP/NCI, 2004).

The experiment concerns CD2F1 mice, L1210 leukemia sc, survival T/C. Nature of the experiment: NCI In Vivo Anticancer Drug Screen. Data for tumor model L1210 Leukemia (subcutaneous) in CD2F1 (CDF1) mice. To be noted: endpoint: median survival time, higher = longer survival. In short, it runs like this:
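T/C ratio: treated-group survival or tumor size over vehicle-control group measurement, in mice carrying transplanted tumors.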

Setting [1] is: dose: 108.0 mg/kg/injection, schedule: Q01DX Z (sc), vehicle: methylcellulose (MC).

Where “and” joins values, the source holds several entries; their conditions need not be identical. Equal values may be shown once. Toxic doses and inconclusive results are not listed.

Consider `COC12C(COC(N)=O)C3=C(C(=O)C(C)=C(N)C3=O)N1CC1C2N1C` (stereo unspecified), for which the T/C was 101 % of control (dose: 2.0 mg/kg/injection, schedule: Q01DX009 (ip), vehicle: saline); 105 % of control (dose: 3.75 mg/kg/injection, schedule: Q01DX009 (ip), vehicle: saline); 120 % of control (dose: 4.0 mg/kg/injection, schedule: Q01DX009 (ip), vehicle: saline); 110 % of control (dose: 7.5 mg/kg/injection, schedule: Q01DX009 (ip), vehicle: saline); 117 % of control (dose: 15.0 mg/kg/injection, schedule: Q01DX009 (ip), vehicle: saline); 101 % of control (dose: 16.0 mg/kg/injection, schedule: Q01DX009 (ip), vehicle: saline).

As to `CC[C@@]1(O)C(=O)OCc2c1cc1n(c2=O)Cc2cc3ccccc3nc2-1`, the T/C by setting is: (dose: 0.13 mg/kg/injection, schedule: Q01DX Z (sc), vehicle: carboxymethylcellulose (CMC)) 111 % of control; (dose: 0.22 mg/kg/injection, schedule: Q01DX Z (sc), vehicle: carboxymethylcellulose (CMC)) 111 % of control; (dose: 0.6 mg/kg/injection, schedule: Q01DX Z (sc), vehicle: carboxymethylcellulose (CMC)) 111 % of control; (dose: 1.0 mg/kg/injection, schedule: Q01DX Z (sc), vehicle: carboxymethylcellulose (CMC)) 122 % of control.

For `O=C(O)c1[nH]c(=O)[nH]c(=O)c1F`, the T/C (dose: 3.0 mg/kg/injection, schedule: Q01DX Z (sc), vehicle: saline) is 111 % of control; the T/C (dose: 8.4 mg/kg/injection, schedule: Q01DX Z (sc), vehicle: saline) was 177 % of control; the T/C (dose: 14.0 mg/kg/injection, schedule: Q01DX Z (sc), vehicle: saline) is 155 % of control; the T/C (dose: 23.0 mg/kg/injection, schedule: Q01DX Z (sc), vehicle: saline) is 166 % of control; the T/C (dose: 39.0 mg/kg/injection, schedule: Q01DX Z (sc), vehicle: saline) is 155 % of control.

For `COc1cc2c(c(OC)c1OC)-c1ccc(N)c(=O)cc1[C@@H](NC(C)=O)CC2`, the T/C (dose: 1.0 mg/kg/injection, schedule: Q01DX Z (sc), vehicle: water) was 90 % of control; the T/C (dose: 2.0 mg/kg/injection, schedule: Q01DX Z (sc), vehicle: water) was 109 % of control; the T/C (dose: 4.0 mg/kg/injection, schedule: Q01DX Z (sc), vehicle: water) is 109 % of control; the T/C (dose: 8.0 mg/kg/injection, schedule: Q01DX Z (sc), vehicle: water) was 109 % of control; the T/C (dose: 16.0 mg/kg/injection, schedule: Q01DX Z (sc), vehicle: water) is 109 % of control.

Turning to `Nc1nc(=S)c2ncn(C3OC(CO)C(O)C3O)c2[nH]1` (stereo unspecified), the T/C was 177 % of control (dose: 6.0 mg/kg/injection, schedule: Q01DX Z (sc), vehicle: other); 183 % of control (dose: 10.1 mg/kg/injection, schedule: Q01DX Z (sc), vehicle: other); 155 % of control (dose: 16.9 mg/kg/injection, schedule: Q01DX Z (sc), vehicle: other); 161 % of control (dose: 28.1 mg/kg/injection, schedule: Q01DX Z (sc), vehicle: other); 155 % of control (dose: 46.8 mg/kg/injection, schedule: Q01DX Z (sc), vehicle: other); 123 % of control (dose: 65.0 mg/kg/injection, schedule: Q01DX Z (sc), vehicle: other). Also, the T/C was 123 % of control (dose: 108.0 mg/kg/injection, schedule: Q01DX Z (sc), vehicle: other); 114 % of control (dose: 180.0 mg/kg/injection, schedule: Q01DX Z (sc), vehicle: other); 104 % of control (dose: 300.0 mg/kg/injection, schedule: Q01DX Z (sc), vehicle: other).

For `Clc1ccc(CSc2ncnc3nc[nH]c23)cc1`, the T/C runs as follows: (dose: 38.9 mg/kg/injection, schedule: Q01DX Z (sc), vehicle: methylcellulose (MC)) 100 % of control; (dose: 64.8 mg/kg/injection, schedule: Q01DX Z (sc), vehicle: methylcellulose (MC)) 100 % of control; under setting [1], 100 % of control; (dose: 180.0 mg/kg/injection, schedule: Q01DX Z (sc), vehicle: methylcellulose (MC)) 100 % of control; (dose: 300.0 mg/kg/injection, schedule: Q01DX Z (sc), vehicle: methylcellulose (MC)) 100 % of control; (dose: 500.0 mg/kg/injection, schedule: Q01DX Z (sc), vehicle: methylcellulose (MC)) 104 % of control.

With `O=C/C(Br)=C(/Br)C(=O)O`, the T/C was 100 % of control (dose: 3.0 mg/kg/injection, schedule: Q01DX Z (sc), vehicle: other); 100 % of control (dose: 5.0 mg/kg/injection, schedule: Q01DX Z (sc), vehicle: other); 100 % of control (dose: 8.4 mg/kg/injection, schedule: Q01DX Z (sc), vehicle: other); 100 % of control (dose: 14.0 mg/kg/injection, schedule: Q01DX Z (sc), vehicle: other); 100 % of control (dose: 39.0 mg/kg/injection, schedule: Q01DX Z (sc), vehicle: other).

Take `CN(C)CCN1C(=O)c2cccc3cc(N)cc(c23)C1=O`: the T/C runs as follows: (dose: 5.0 mg/kg/injection, schedule: Q01DX009 (ip), vehicle: acid diluted with saline) 102 % of control and 105 % of control and 118 % of control; (dose: 7.0 mg/kg/injection, schedule: Q01DX009 (ip), vehicle: acid diluted with saline) 103 % of control and 115 % of control and 121 % of control; (dose: 10.0 mg/kg/injection, schedule: Q01DX009 (ip), vehicle: acid diluted with saline) 112 % of control; (dose: 16.0 mg/kg/injection, schedule: Q01DX009 (ip), vehicle: acid diluted with saline) 150 % of control and 173 % of control; (dose: 24.0 mg/kg/injection, schedule: Q01DX009 (ip), vehicle: acid diluted with saline) 116 % of control.

Take `Nc1nncs1`: the T/C (dose: 39.0 mg/kg/injection, schedule: Q02DX005 (sc), vehicle: water) was 100 % of control and 103 % of control; the T/C (dose: 65.0 mg/kg/injection, schedule: Q02DX005 (sc), vehicle: water) was 100 % of control and 102 % of control; the T/C (dose: 108.0 mg/kg/injection, schedule: Q02DX005 (sc), vehicle: water) is 100 % of control and 106 % of control; the T/C (dose: 180.0 mg/kg/injection, schedule: Q02DX005 (sc), vehicle: water) is 122 % of control; the T/C (dose: 300.0 mg/kg/injection, schedule: Q02DX005 (sc), vehicle: water) is 166 % of control and 180 % of control; the T/C (dose: 300.0 mg/kg/injection, schedule: Q04DX003 (sc), vehicle: saline) was 100 % of control and 104 % of control. The T/C is, setting by setting: (dose: 500.0 mg/kg/injection, schedule: Q02DX005 (sc), vehicle: water) 172 % of control and 180 % of control; (dose: 500.0 mg/kg/injection, schedule: Q04DX003 (sc), vehicle: saline) 105 % of control and 112 % of control; (dose: 833.0 mg/kg/injection, schedule: Q04DX003 (sc), vehicle: saline) 116 % of control and 124 % of control; (dose: 1388.0 mg/kg/injection, schedule: Q04DX003 (sc), vehicle: saline) 154 % of control.

In the case of `c1ccc(CNc2ncnc3[nH]ncc23)cc1`, the T/C runs as follows: (dose: 8.4 mg/kg/injection, schedule: Q01DX Z (sc), vehicle: methylcellulose (MC)) 105 % of control; (dose: 14.0 mg/kg/injection, schedule: Q01DX Z (sc), vehicle: methylcellulose (MC)) 100 % of control; (dose: 23.0 mg/kg/injection, schedule: Q01DX Z (sc), vehicle: methylcellulose (MC)) 100 % of control; (dose: 39.0 mg/kg/injection, schedule: Q01DX Z (sc), vehicle: methylcellulose (MC)) 100 % of control; (dose: 65.0 mg/kg/injection, schedule: Q01DX Z (sc), vehicle: methylcellulose (MC)) 111 % of control; under setting [1], 122 % of control.

On to `O=NN(CCCl)C(=O)NC1CC2CCC1C2` (stereo unspecified), for which the T/C runs as follows: (dose: 3.75 mg/kg/injection, schedule: Q01DX Z (sc), vehicle: carboxymethylcellulose (CMC)) 94 % of control; (dose: 7.5 mg/kg/injection, schedule: Q01DX Z (sc), vehicle: carboxymethylcellulose (CMC)) 94 % of control; (dose: 15.0 mg/kg/injection, schedule: Q01DX Z (sc), vehicle: carboxymethylcellulose (CMC)) 117 % of control; (dose: 30.0 mg/kg/injection, schedule: Q01DX Z (sc), vehicle: carboxymethylcellulose (CMC)) 288 % of control; (dose: 60.0 mg/kg/injection, schedule: Q01DX Z (sc), vehicle: carboxymethylcellulose (CMC)) 200 % of control.

Consider `CN(C)c1ccc(/C=C2\C=Cc3ccccc32)cc1`, for which the T/C reads like this: (dose: 39.0 mg/kg/injection, schedule: Q01DX Z (sc), vehicle: carboxymethylcellulose (CMC)) 100 % of control; (dose: 65.0 mg/kg/injection, schedule: Q01DX Z (sc), vehicle: carboxymethylcellulose (CMC)) 100 % of control; (dose: 108.0 mg/kg/injection, schedule: Q01DX Z (sc), vehicle: carboxymethylcellulose (CMC)) 100 % of control; (dose: 180.0 mg/kg/injection, schedule: Q01DX Z (sc), vehicle: carboxymethylcellulose (CMC)) 100 % of control; (dose: 300.0 mg/kg/injection, schedule: Q01DX Z (sc), vehicle: carboxymethylcellulose (CMC)) 100 % of control.
